Results as given in publication PMC5907308, “21st Brazilian Diabetes Society Congress” (Diabetology & Metabolic Syndrome, 2018).

Tests used:
[1] = tested on: patients with type 2 diabetes; assay: Acute NEFA lowering with acipimox: 3 h OGTT and isoglycaemic IV glucose; assay type: in vivo, human
Procedure: Both tests were repeated after ACP ingestion (200 mg 2 h before and 1 h after starting glucose). C-peptide deconvolution was used to calculate IS rates; mathematical model to quantitate ß-cell function and IE. Main parameters: insulin secretion rate (ISR); glucose sensitivity (ßGS), i.e., the slope of the IS/glucose dose–response curve; glucose-induced potentiation (PGLU), a time-dependent modulation of the dose–response; incretin-induced potentiation (PINCR) calculated as the fold IS increment during OGTT compared to IV glucose.

obese patients = tested on: obese patients
Source text: Alpha-linolenic acid supplementation effects on endoplasmic reticulum stress in visceral adipose tissue from morbid obese patients. 2017. Tese (Doutorado)—Faculdade de Medicina de Ribeirão Preto, Universidade de São Paulo, Ribeirão Preto, 2017. Currently, obesity is considered a worldwide epidemic. It is associated with chronic inflammation and stress activation of the endoplasmic reticulum (ERE), related to the pathogenesis of various diseases such as type 2 diabetes mellitus, cardiovascular diseases, cancer, hypertension, among others. In this context, studies are needed to find alternatives that improve the inflammatory process. […] The objective of our study was to evaluate the effects of alpha-linolenic acid (ALA) supplementation on the metabolism and stress of the endoplasmic reticulum in obese patients. A prospective, randomized, placebo-controlled, double-blind study was conducted. In total, 52 patients were randomized to supplementation with 3 g/day of ALA or placebo, 27 individuals from the omega-3/ALA group and 25 from the control group. Lipid, glycidic and inflammatory profile were evaluated before and after supplementation. Visceral adipose tissue (TAV) was collected during bariatric surgery after supplementation. The fatty acid profile incorporated in the TAV was evaluated by gas chromatography. Genes were evaluated by real-time PCR.

type 2 diabetic patient = assay: Case report: liraglutide added to insulin degludec and metformin; assay type: in vivo, human; conditions: last evaluation
Procedure: patient one, type 2 diabetic for 3 years, using Gliclazide 60 mg/day and Metformin 1500 mg/day. They reported asthenia and difficulty losing weight. […] To optimize patient glycemic control and weight loss, Liraglutide 1.2 mg/day was initiated. […] The insulin dose was reduced to 10 U and reassessed in 30 days for possible discontinuation of insulin therapy. GLP- 1 receptor agonists stimulate insulin secretion in a […] manner, inhibit glucagon secretion and hepatic glucose output, delay gastric emptying, induce satiety, reduce appetite, and cause weight loss. […] It is a therapeutic option with action well established in weight loss, metabolic and glycemic improvement in the DM2 patient. However, its action on HbA1C reduction was independent of weight loss, evidencing intensive glycemic control with HbA1C between 6.5 and 7.0% even with discrete or even absent weight loss.

[2] = tested on: participants with type 2 diabetes and high cardiovascular risk; assay: LEADER trial, renal outcomes; assay type: in vivo, human
Source text: Background: The effects of liraglutide, a long-acting glucagon-like peptide-1(GLP-1) analog, on renal outcomes in type 2 diabetes are unknown. We conducted a randomized, double-blind, placebo-controlled trial comparing liraglutide vs placebo, both on a background of standard of care, in participants with type 2 diabetes and high cardiovascular risk.
Renal events were key secondary outcomes. The primary renal outcome was a composite of new onset of persistent macroalbuminuria, persistent doubling of serum creatinine, end stage renal disease (ESRD), or death due to renal disease. Risk of renal outcomes was determined using intention-to-treat in time-to-event analyses; competing risk of death was taken into account. Change of eGFR and loss of eGFR by > − 30% was also analyzed.

male Wistar rats = assay type: in vivo, rat
Source text: Background: Glucocorticoids (GCs) are a group of drugs with immunosuppressive and antiinflammatory action, its mechanism of action is related to the suppressing the release of proinflammatory cytokines. In addition, GCs may interfere with carbohydrate metabolism, by antagonizing various peripheral actions of insulin, and from this action, trigger changes in the biochemical profile, mainly regarding the lipid representation. The present study aimed to evaluate the dose–response influence of prednisone in the biochemical profile of rats. […] The treatment was daily with a duration of 21 days, with fasting glycemic measures being evaluated in the first (zero) and last day (21). Then the rats were anesthetized and killed by decapitation, in order to collect the whole blood for serum biochemical analysis by spectrophotometry. All data were statistically evaluated with significance of 5%.

[3] = tested on: patient with schizophrenia; assay: New-onset diabetes caused by atypical antipsychotic, case report; assay type: in vivo, human
Source text: Case report: A patient, previously healthy, had been diagnosed with schizophrenia and started treatment with risperidone. Due to the lack of response, the medication was switched to olanzapine. After 2 years on the new treatment, however, they experienced polyuria, polydipsia and polyphagia, with a weight gain of approximately 12 kg in a period of 2 years. They were diagnosed with new-onset diabetes mellitus and hypertriglyceridemia and was referred to our center for evaluation. They were started on metformin 500 mg/day, NPH insulin 9 units before breakfast and 7 units bedtime, and bezafibrate 200 mg/day. […] LDL was not calculated due to the hypertriglyceridemia. Insulin was titrated to achieve glycemic control and autoantibodies (antiGAD, antiICA and anti-insulin) were requested, but they were negative. A letter was addressed to the psychiatry staff regarding olanzapine’s adverse events, which was exchanged to ziprasidone. […] Insulin dosing was reduced and further withdrawn 3 months after initiation of ziprasidone. Currently, 2 months thereafter, they are on good glycemic control with metformin and alogliptin.

[4] = tested on: NGT subjects and T2D patients; assay: Hyperglycaemic clamp with somatostatin, without and with insulin infusion: renal glucose excretion; assay type: in vivo, human
Procedure: Then, a constant insulin infusion (1 mU min^−1 kg^−1) was started and maintained for additional 3 h (INS period) while clamping glycaemia at CT levels with the use of an ad hoc algorithm. Urines were collected separately for the two study periods for the measurement of glucose and creatinine.

[5] = tested on: people with T2D and CKD stages 3-4; assay: AWARD-7 phase 3 study, 26 weeks, both arms combined with insulin lispro; assay type: in vivo, human
[6] = tested on: subjects with type 1 diabetes; assay: onset 1, 26-week phase 3 trial, post hoc analysis by dose adjustment method; assay type: in vivo, human; conditions: before treatment
[7] = arms DU 1.5 mg and insulin glargine
[8] = subjects continuing carbohydrate counting (CC)
[9] = subjects using a simple bolus algorithm (BA)

Compound: Cc1cnc(C(=O)O)c[n+]1[O-] [ACP, acipimox]
- decrease of NEFA OGTT-area-under-curve (AUC) ([1]; ACP 200 mg 2 h before and 1 h after starting glucose, n = 13, mean ± SD): 55 ± 14%
- glucose sensitivity (ßGS) ([1]; after ACP, control 26 ± 9, p = ns): 32 ± 11 pmol min^−1 m^−2 mM^−1
- insulin secretion rate (ISR), isoglycaemic IV glucose ([1]; after ACP, control 58 ± 19): 53 ± 15 nmol m^−2
- insulin secretion rate (ISR), OGTT ([1]; after ACP, control 70 ± 23): 64 ± 20 nmol m^−2
- oral glucose sensitivity index, OGIS ([1]; after ACP, control 291 ± 60): 326 ± 44 ml min^−1 m^−2
- incretin-induced potentiation (PINCR) ([1]; in vivo): 1.17 ± 0.14 fold

Compound: CC/C=C\C/C=C\C/C=C\CCCCCCCC(=O)O [ALA, alpha-linolenic acid]
- serum levels of IL-6, TNF-α and CRP (obese patients; after supplementation): no change
- serum Leptin levels (obese patients; after supplementation, P = 0.0154): decrease
- serum IL-4 (obese patients; after supplementation, p = 0.0211): increase
- serum IP-10 (obese patients; after supplementation, p = 0.0410): decrease
- incorporation of ALA, EPA and DHA into visceral adipose tissue (TAV) (obese patients; gas chromatography): Significant incorporation
- gene expression of XBP1, sXBP1, EIF2-α, GADD34 and CCT4 chaperone in TAV (obese patients; real-time PCR): increase
- gene expression of leptin and ATF-6 in TAV (obese patients; real-time PCR): decrease

Compound: CCCCCCCCCCCCCCCC(=O)N[C@@H](CCC(=O)NCCCC[C@H](NC(=O)[C@H](C)NC(=O)[C@H](C)NC(=O)[C@H](CCC(N)=O)NC(=O)CNC(=O)[C@H](CCC(=O)O)NC(=O)[C@H](CC(C)C)NC(=O)[C@H](Cc1ccc(O)cc1)NC(=O)[C@H](CO)NC(=O)[C@H](CO)NC(=O)[C@@H](NC(=O)[C@H](CC(=O)O)NC(=O)[C@H](CO)NC(=O)[C@@H](NC(=O)[C@H](Cc1ccccc1)NC(=O)[C@@H](NC(=O)CNC(=O)[C@H](CCC(=O)O)NC(=O)[C@H](C)NC(=O)[C@@H](N)Cc1c[nH]cn1)[C@@H](C)O)[C@@H](C)O)C(C)C)C(=O)N[C@@H](CCC(=O)O)C(=O)N[C@@H](Cc1ccccc1)C(=O)N[C@H](C(=O)N[C@@H](C)C(=O)N[C@@H](Cc1c[nH]c2ccccc12)C(=O)N[C@@H](CC(C)C)C(=O)N[C@H](C(=O)N[C@@H](CCCNC(=N)N)C(=O)NCC(=O)N[C@@H](CCCNC(=N)N)C(=O)NCC(=O)O)C(C)C)[C@@H](C)CC)C(=O)O [Liraglutide]
- HbA1c (type 2 diabetic patient): 6.4%
- total weight loss (type 2 diabetic patient; […] of total weight): 6 kg
- albuminuria vs placebo ([2]; in vivo): increased less
- eGFR vs placebo ([2]; in vivo): decreased significantly less
- primary renal outcome, participants ([2]; median follow-up 3.84 years, placebo 337 of 4672): 268 of 4668
- primary renal outcome, HR vs placebo ([2]; p = 0.003): 0.787 [0.670;0.924]
- new onset of persistent macroalbuminuria, HR vs placebo ([2]; p = 0.004): 0.74 [0.61;0.91]
- new onset of persistent macroalbuminuria, participants ([2]; placebo 215 of 4672): 161 of 4668

Compound: C[C@]12C=CC(=O)C=C1CC[C@@H]1[C@@H]2C(=O)C[C@@]2(C)[C@H]1CC[C@]2(O)C(=O)CO [PRED, prednisone]
- alanine aminotransferase (ALT) (male Wistar rats; 1.25 mg/kg, control 68.6 ± 24.8): 79.0 ± 25.1 U/L
- triglycerides (male Wistar rats; 5.0 mg/kg, 21 days, CONT 144.1 ± 39.6): 76.0 ± 36.2 mg/dL
- VLDL (male Wistar rats; 5.0 mg/kg, CONT 22.8 ± 7.9): 15.2 ± 7.2 mg/dL
- HDL (male Wistar rats; 5.0 mg/kg, CONT 53.0 ± 7.7): 23.8 ± 4.2 mg/dL

Compound: Cc1cc2c(s1)Nc1ccccc1N=C2N1CCN(C)CC1 [olanzapine]
- HDL ([3]; After 2 years on olanzapine): 65 mg/dL
- Total cholesterol ([3]; After 2 years on olanzapine): 570 mg/dL
- triglycerides ([3]; After 2 years on olanzapine): 3455 mg/dL
- weight gain ([3]; period of 2 years on olanzapine): approximately 12 kg

Compound: INS: constant insulin infusion (1 mU min^−1 kg^−1)
- exogenous glucose infusion rate (GIR) ([4]; INS period (insulin 1 mU min^−1 kg^−1, 3 h), NGT, CT period 36 ± 16): 157 ± 46 µmol kg MM^−1 min^−1
- fractional glucose excretion (FEG) ([4]; INS period, NGT, CT period 20 ± 5): 24 ± 3%
- urinary glucose excretion (UGE), median [IQR] ([4]; INS period, NGT, CT period 690 [180]): 770 [320] µmol min^−1
- fractional glucose excretion (FEG) ([4]; INS period, T2D, CT period 17 ± 6): 17 ± 7%
- exogenous glucose infusion rate (GIR) ([4]; INS period, T2D, CT period 26 ± 12): 71 ± 47 µmol kg MM^−1 min^−1
- urinary glucose excretion (UGE), median [IQR] ([4]; INS period, T2D, CT period 490[280]): 530[310] µmol min^−1

Compound: dulaglutide
- Nausea ([5]; arm DU 0.75 mg): 11.1%
- diarrhea ([5]; arm DU 0.75 mg): 13.7%
- vomiting ([5]; arm DU 0.75 mg): 5.8%
- hypoglycemia rate (≤ 70 mg/dL) ([5]; arm DU 0.75 mg once weekly): 7.8 events/participant/year
- Nausea [5, 7]: 19.8%
- diarrhea [5, 7]: 15.6%
- vomiting [5, 7]: 12.0%
- hypoglycemia rate (≤ 70 mg/dL) ([5]; arms DU 1.5 mg once weekly and titrated daily insulin glargine): 5.5 events/participant/year

Compound: fast-acting insulin aspart [faster aspart]
- HbA1c at baseline [6, 8]: 7.6%
- HbA1c at baseline [6, 9]: 7.5%

Compound: insulin aspart [IAsp]
- HbA1c at baseline [6, 8]: 7.6%
- HbA1c at baseline [6, 9]: 7.6%
